Paper PMC10353390, “Biological and Structural Analyses of New Potent Allosteric Inhibitors of HIV-1 Integrase” (Antimicrobial Agents and Chemotherapy, 2023)
Like-named read-outs stand apart in the source and are kept apart here.

Assays:
HIV-1 IN = target: T1, HIV-1 IN (Human immunodeficiency virus type 1 group M subtype B, UniProt P12497); test: HTRF IN multimerization assay; format: biochemical; conditions: mean ± SD
T1 construct: made in house
Description: A key property of INLAIs is the ability to promote HIV-1 IN homo-multimerization ([39][–][42]). […] The maximal signal (plateau) in our IN aggregation assay corresponds to the highest HTRF signal increase under saturating INLAI concentration, relative to baseline level. Thus, MUT916, MUT884, MUT871, and MUT872 increased HIV-1 IN aggregation 3.7 to 4.4-fold, while BDM-2, BI-224436, and S-I-82 did so 5 to 6-fold (Table 1).

HXB2 HIV-1 strain = test: Multiple-round infection assay in MT4 cells, HXB2; format: cell-based; conditions: Human immunodeficiency virus 1, HXB2; multiple-round infection, MT4 cells; mean ± SD, n > 5; read-out: EC50 HXB2
Procedure, shortened: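 Antiviral read-out was CellTiter-Glo luminescent viability of exponentially growing MT4 cells (10^6/mL). Cells were exposed to HIV-1 for 2 h at an MOI of 0.001 while compound was present at varying concentrations.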

NL4-3 HIV-1 strain = test: Multiple-round infection assay in MT4 cells, NL4-3; format: cell-based; conditions: MT4 cells
[1] = Cytotoxicity assay in MT4 cells; format: cell-based; conditions: human, MT4 cells (proliferating human T-cell line), CellTiter-Glo
Description: Growth inhibition was monitored in a proliferating human T-cell line (MT4) with different concentrations of compounds, using the CellTiter-Glo luminescent reagent (Promega), as previously described ([12]).

[2] = test system: lab-adapted and clinical HIV-1 isolates; test: Infection assays in primary T CD4+ lymphocytes; format: cell-based; conditions: Human immunodeficiency virus 1, Lymphocyte
[3] = test system: VSV-G-pseudotyped NL4-3Δenv-luc; test: microbe, parasite or virus in culture; format: cell-based, HIV-1
[4] = test system: recombinant NL4-3 viruses with polymorphisms at IN positions 124 and 125; test: Multiple-round infection of MT4 cells with recombinant NL4-3 viruses polymorphic at IN positions 124 and 125; format: cell-based, HIV-1
Procedure, shortened: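 EC50 fold change relative to wild-type TT NL4-3 was derived from CellTiter-Glo viability of exponentially growing MT4 cells (10^6/mL). Cells were exposed for 2 h, with compounds, to NL4-3 clones bearing one of 15 IN 124/125 variants at MOI 0.001.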

[5] = test system: primary HIV-1 isolates with polymorphisms at IN positions 124 and 125; test: Multiple-round infection of MT4 cells with primary HIV-1 isolates polymorphic at IN positions 124 and 125; format: cell-based; conditions: primary isolate
Procedure, shortened: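 Antiviral potency read as protection of cell viability (CellTiter-Glo luminescence). Infection at MOI 0.001 lasted 2 h with compound present at a range of concentrations, using MT4 cells at 10^6/mL in exponential growth.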

[6] = test system: NL4-3 HIV-1 with INLAI-selected IN single point mutations; format: cell-based
[7] = target: HIV-1 IN-LEDGF/p75 interaction (Human immunodeficiency virus type 1 group M subtype B, UniProt P12497); test: biochemical
Description: (§1) The INLAIs were tested for the ability to inhibit the HIV-1 IN-LEDGF/p75 interaction in a homogeneous time-resolved fluorescence (HTRF) assay. Our assays used either full-length IN and LEDGF/p75 proteins or their respective minimally sufficient interaction domains: the CCD of HIV-1 IN and the IBD of LEDGF/p75 (Table 1).
(§2) HTRF-based CCD-IBD interaction, IN-LEDGF/p75 interaction and IN multimerization assays were performed as described previously ([12]).

[8] = target: CCD of HIV-1 IN and IBD of LEDGF/p75 (Human immunodeficiency virus type 1 group M subtype B, UniProt P12497); test: biochemical
Description: as §1, §2

In the case of Cc1ccc(C2CC2)c(-c2ccc3c(c2)CCCO3)c1[C@H](OC(C)(C)C)C(=O)O [BDM-2], the AC50 (HIV-1 IN; concentration for 50% maximum activation of multimerization) is reported as 20 ± 11 nM, the “IN multimerization Plateau” value (HIV-1 IN; maximum multimerization reached versus baseline) is reported as 560 ± 150% and the EC50 (HXB2 HIV-1 strain) is reported as 4.5 ± 1.2 nM. The EC90 (NL4-3 HIV-1 strain; Human immunodeficiency virus 1, NL43, multiple-round infection, from dose response curves, read-out: EC90 NL4-3) was 13 ± 5.1 nM, the EC50 (NL4-3 HIV-1 strain; Human immunodeficiency virus 1, NL43, multiple-round infection, mean ± SD, n > 5, read-out: EC50 NL4-3) was 8.7 ± 2.8 nM and the “Selectivity index CC50/EC50 NL4-3” value (NL4-3 HIV-1 strain) was 7,931. The CC50 [1] was 69000 ± 8000 nM, the EC50 ([2]; read-out: EC50 33913N (B)) was 4.2 ± 1.6 nM and the EC50 ([2]; read-out: EC50 HXB2 (B)) was 3.4 ± 1 nM. The EC50 ([2]; read-out: EC50 KER2008 (A)) was 8.1 ± 1.3 nM, the EC50 ([2]; read-out: EC50 NL4-3 (B)) was 8.3 ± 4.3 nM and the EC50 ([2]; read-out: EC50 NP1525 (CRF01_AE)) was 11 ± 5 nM. For the same molecule, the EC50 ([2]; read-out: EC50 NP1538 (B)) was 13 ± 6 nM, the “EC50 ratio (single/multiple-round infection)” value [3] was 161 and the EC50 ([3]; Human immunodeficiency virus 1, NL43, MT4, read-out: EC50 in single-round infection) was 1400 ± 300 nM. For the same molecule, the “Fold change in EC50 relative to parental NL4-3, AA” value ([4]; recombinant NL4-3, IN 124/125 AA) was 1, the “Fold change in EC50 relative to parental NL4-3, AM” value ([4]; recombinant NL4-3, IN 124/125 AM) was 0.4 and the “Fold change in EC50 relative to parental NL4-3, AT” value ([4]; recombinant NL4-3, IN 124/125 AT) was 1. For the same molecule, the “Fold change in EC50 relative to parental NL4-3, AV” value ([4]; recombinant NL4-3, IN 124/125 AV) was 2, the “Fold change in EC50 relative to parental NL4-3, GA” value ([4]; recombinant NL4-3, IN 124/125 GA) was 1 and the “Fold change in EC50 relative to parental NL4-3, GT” value ([4]; recombinant NL4-3, IN 124/125 GT) was 1. For the same molecule, the “Fold change in EC50 relative to parental NL4-3, NA” value ([4]; recombinant NL4-3, IN 124/125 NA) was 1, the “Fold change in EC50 relative to parental NL4-3, NT” value ([4]; recombinant NL4-3, IN 124/125 NT) was 1 and the “Fold change in EC50 relative to parental NL4-3, NV” value ([4]; recombinant NL4-3, IN 124/125 NV) was 1. The “Fold change in EC50 relative to parental NL4-3, SA” value ([4]; recombinant NL4-3, IN 124/125 SA) was 1, the “Fold change in EC50 relative to parental NL4-3, ST” value ([4]; recombinant NL4-3, IN 124/125 ST) was 1 and the “Fold change in EC50 relative to parental NL4-3, TA” value ([4]; recombinant NL4-3, IN 124/125 TA) was 1. The “Fold change in EC50 relative to parental NL4-3, TM” value ([4]; recombinant NL4-3, IN 124/125 TM) was 0.3, the “Fold change in EC50 relative to parental NL4-3, TV” value ([4]; recombinant NL4-3, IN 124/125 TV) was 1 and the “Fold change in EC50 relative to parental NL4-3, CAM2BBY (CRF02)” value ([5]; IN 124/125 AA) was 2. For the same molecule, the “Fold change in EC50 relative to parental NL4-3, E0836M4 (D)” value ([5]; IN 124/125 AA) was 1, the “Fold change in EC50 relative to parental NL4-3, KER2008 (A)” value ([5]; IN 124/125 AA) was 1 and the “Fold change in EC50 relative to parental NL4-3, NP1525 (CRF01)” value ([5]; IN 124/125 AA) was 1. For the same molecule, the “Fold change in EC50 relative to parental NL4-3, NP1695 (CRF02)” value ([5]; IN 124/125 AA) was 2, the “Fold change in EC50 relative to parental NL4-3, TZA125 (C)” value ([5]; IN 124/125 AA) was 0.4 and the “Fold change in EC50 relative to parental NL4-3, KSM4030 (A)” value ([5]; IN 124/125 GA) was 2. For the same molecule, the “Fold change in EC50 relative to parental NL4-3, vGA (C)” value ([5]; IN 124/125 GA) was 4, the “Fold change in EC50 relative to parental NL4-3, 99ET14 (C)” value ([5]; IN 124/125 NA) was 1 and the “Fold change in EC50 relative to parental NL4-3, NP1538 (B)” value ([5]; IN 124/125 NA) was 2. The “Fold change in EC50 relative to parental NL4-3, vNA_1 (B)” value ([5]; IN 124/125 NA) was 2, the “Fold change in EC50 relative to parental NL4-3, vNA_2 (CRF02)” value ([5]; IN 124/125 NA) was 3 and the “Fold change in EC50 relative to parental NL4-3, vNV (B)” value ([5]; IN 124/125 NV) was 2. The “Fold change in EC50 relative to parental NL4-3, vSA_1 (B)” value ([5]; IN 124/125 SA) was 3, the “Fold change in EC50 relative to parental NL4-3, vSA_2 (CRF02)” value ([5]; IN 124/125 SA) was 3 and the “Fold change in EC50 relative to parental NL4-3, vTA_1 (B)” value ([5]; IN 124/125 TA) was 2. For the same molecule, the “Fold change in EC50 relative to parental NL4-3, vTA_2 (CRF02)” value ([5]; IN 124/125 TA) was 1, the “EC50 fold change compared to wild type NL4-3, A128T” value [6] was 4 and the “EC50 fold change compared to wild type NL4-3, H171Q” value [6] was 3. For the same molecule, the “EC50 fold change compared to wild type NL4-3, N222K” value [6] was 2, the “EC50 fold change compared to wild type NL4-3, T174I” value [6] was 253 and the “EC50 fold change compared to wild type NL4-3, Y99H” value [6] was 4. The IC50 [7] was 47 ± 14 nM and the IC50 [8] was 150 ± 30 nM.
